The values that follow are results of earlier work, collected in patent publication US4374828A, “Biologically active thymones from the thymus” (Board of Reagents, The University of Texas System, priority 1980, dated 1983).

Series [1] concerns cells which had a B-lineage. To be noted: in vitro.
The next series concerns murine prothymocytes. Particulars: in vitro.

With “(H) Arg^32 -Lys^33 -Asp^34 -Val^35 -Tyr^36 -OH [pentapeptide]”, the “Differential induction of B-lineage cells (in words)” value in series [1] was “inhibited, in vitro, the differential induction of cells which had a B-lineage”. Also, in the series on murine prothymocytes, the “Differentiation of prothymocytes to thymocytes (in words)” value is “induced, in vitro, differentiation of murine prothymocytes to thymocytes”.
On to “NH2 -Ser-Glu-Phe-Leu-Glu^5 -Asp-Pro-Ser-Val-Leu^10 -Thr-Lys-Glu-Lys-Leu^15 -Lys-Ser-Glu-Leu-Val^20 -Ala-Asn-Val-Thr^25 -Leu-Pro-Ala-Gly-Glu^30 -Gln-Arg-Lys-Asp-Val^35 -Tyr-Val-Gln-Leu-Tyr^40 -Leu-Gln-Thr-Leu-Thr^45 -Ala-Val-Lys-Arg^49 -COOH (H-SEFLEDPSVLTKEKLKSELVANVTLPAGEQRKDVYVQLYLQTLTAVKR-OH) [thymin II, polypeptide of bovine thymin, renamed thymopoietin II]”, for which the “Induction of marrow cells (in words)” value with marrow cells is “induce marrow cells to develop as intrathymic lymphocytes”.
Consider “thymopoietin: a preparation of thymopoietin”, for which the “Immune function of spleen cells (in words)” value in the series with spleen cells of old mice is on record as “increased the immune function of the spleen cells of old mice”.
